Assay results: US8168651B2, “Protein kinase modulators” (Cylene Pharmaceuticals, Inc., priority 2008, dated 2012)

Columns and labels:
Experiment in all cases: Standardized radiometric kinase assays, percentage of activity at 0.5 μM;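 note: Read-out is ³³P-labelled substrate protein phosphorylated by each kinase, captured on filters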
[1] = biological target: each individual kinase of the panel (Homo sapiens, UniProt O15111); conditions: for % Activity: IKKα(h)
[2] = biological target: each individual kinase of the panel (Homo sapiens, UniProt O43318); conditions: for % Activity: TAK1(h)
[3] = biological target: each individual kinase of the panel (Homo sapiens, UniProt O94804); conditions: for % Activity: LOK(h)
[4] = biological target: each individual kinase of the panel (Homo sapiens, UniProt P06241); conditions: for % Activity: Fyn(h)
[5] = biological target: each individual kinase of the panel (Homo sapiens, UniProt P06493); conditions: for % Activity: CDK1/cyclinB(h)
[6] = biological target: each individual kinase of the panel (Homo sapiens, UniProt P07332); conditions: for % Activity: Fes(h)
[7] = biological target: each individual kinase of the panel (Homo sapiens, UniProt P07947); conditions: for % Activity: Yes(h)
[8] = biological target: each individual kinase of the panel (Homo sapiens, UniProt P07948); conditions: for % Activity: Lyn(h)
[9] = biological target: each individual kinase of the panel (Homo sapiens, UniProt P07949); conditions: for % Activity: Ret(h)
[10] = biological target: each individual kinase of the panel (Homo sapiens, UniProt P08922)
[11] = biological target: each individual kinase of the panel (Homo sapiens, UniProt P10721); conditions: for % Activity: cKit(h)
[12] = biological target: each individual kinase of the panel (Homo sapiens, UniProt P12931); conditions: for % Activity: cSRC(h)
[13] = biological target: each individual kinase of the panel (Homo sapiens, UniProt P16591); conditions: for % Activity: Fer(h)
[14] = biological target: each individual kinase of the panel (Homo sapiens, UniProt P17252); conditions: for % Activity: PKCα(h)
[15] = biological target: each individual kinase of the panel (Homo sapiens, UniProt P17612); conditions: for % Activity: PKA(h)
[16] = biological target: each individual kinase of the panel (Homo sapiens, UniProt P19784); conditions: for % Activity: CK2α2(h)
[17] = biological target: each individual kinase of the panel (Homo sapiens, UniProt P36888, D835Y); conditions: for % Activity: Flt3(D835Y)(h)
[18] = biological target: each individual kinase of the panel (Homo sapiens, UniProt P43403); conditions: for % Activity: ZAP-70(h)
[19] = biological target: each individual kinase of the panel (Homo sapiens, UniProt P49841); conditions: for % Activity: GSK3β(h)
[20] = biological target: each individual kinase of the panel (Homo sapiens, UniProt P68400); conditions: for % Activity: CK2(h)
[21] = biological target: each individual kinase of the panel (Homo sapiens, UniProt Q02763); conditions: for % Activity: Tie2(h)
[22] = biological target: each individual kinase of the panel (Homo sapiens, UniProt Q06418); conditions: for % Activity: Rse(h)
[23] = biological target: each individual kinase of the panel (Homo sapiens, UniProt Q15375); conditions: for % Activity: EphA7(h)
[24] = biological target: each individual kinase of the panel (Homo sapiens, UniProt Q15418); conditions: for % Activity: Rsk1(h)
[25] = biological target: each individual kinase of the panel (Homo sapiens, UniProt Q16832)
[26] = biological target: each individual kinase of the panel (Homo sapiens, UniProt Q9HBH9); conditions: for % Activity: Mnk2(h)
[27] = biological target: each individual kinase of the panel (Homo sapiens, UniProt Q9Y6M4); conditions: for % Activity: CK1γ3(h)
[28] = system: each individual kinase of the panel; conditions: for % Activity: MAPK1(h)
[29] = biological target: each individual kinase of the panel (Homo sapiens, UniProt P28482)
each individual kinase of the panel (Homo sapiens, UniProt P28482), sequence (P28482 2-360 limits assumed): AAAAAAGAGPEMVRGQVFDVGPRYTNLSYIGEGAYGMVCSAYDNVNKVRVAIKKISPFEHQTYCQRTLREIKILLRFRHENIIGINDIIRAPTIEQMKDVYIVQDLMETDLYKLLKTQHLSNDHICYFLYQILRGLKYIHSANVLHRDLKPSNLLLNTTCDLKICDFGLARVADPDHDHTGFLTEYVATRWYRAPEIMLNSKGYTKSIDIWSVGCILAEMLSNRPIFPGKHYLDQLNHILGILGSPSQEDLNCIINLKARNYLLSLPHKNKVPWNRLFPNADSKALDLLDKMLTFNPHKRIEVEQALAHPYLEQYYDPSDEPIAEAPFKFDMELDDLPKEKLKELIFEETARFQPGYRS

each individual kinase of the panel (Homo sapiens, UniProt P08922), sequence (P08922 28-2347 limits assumed): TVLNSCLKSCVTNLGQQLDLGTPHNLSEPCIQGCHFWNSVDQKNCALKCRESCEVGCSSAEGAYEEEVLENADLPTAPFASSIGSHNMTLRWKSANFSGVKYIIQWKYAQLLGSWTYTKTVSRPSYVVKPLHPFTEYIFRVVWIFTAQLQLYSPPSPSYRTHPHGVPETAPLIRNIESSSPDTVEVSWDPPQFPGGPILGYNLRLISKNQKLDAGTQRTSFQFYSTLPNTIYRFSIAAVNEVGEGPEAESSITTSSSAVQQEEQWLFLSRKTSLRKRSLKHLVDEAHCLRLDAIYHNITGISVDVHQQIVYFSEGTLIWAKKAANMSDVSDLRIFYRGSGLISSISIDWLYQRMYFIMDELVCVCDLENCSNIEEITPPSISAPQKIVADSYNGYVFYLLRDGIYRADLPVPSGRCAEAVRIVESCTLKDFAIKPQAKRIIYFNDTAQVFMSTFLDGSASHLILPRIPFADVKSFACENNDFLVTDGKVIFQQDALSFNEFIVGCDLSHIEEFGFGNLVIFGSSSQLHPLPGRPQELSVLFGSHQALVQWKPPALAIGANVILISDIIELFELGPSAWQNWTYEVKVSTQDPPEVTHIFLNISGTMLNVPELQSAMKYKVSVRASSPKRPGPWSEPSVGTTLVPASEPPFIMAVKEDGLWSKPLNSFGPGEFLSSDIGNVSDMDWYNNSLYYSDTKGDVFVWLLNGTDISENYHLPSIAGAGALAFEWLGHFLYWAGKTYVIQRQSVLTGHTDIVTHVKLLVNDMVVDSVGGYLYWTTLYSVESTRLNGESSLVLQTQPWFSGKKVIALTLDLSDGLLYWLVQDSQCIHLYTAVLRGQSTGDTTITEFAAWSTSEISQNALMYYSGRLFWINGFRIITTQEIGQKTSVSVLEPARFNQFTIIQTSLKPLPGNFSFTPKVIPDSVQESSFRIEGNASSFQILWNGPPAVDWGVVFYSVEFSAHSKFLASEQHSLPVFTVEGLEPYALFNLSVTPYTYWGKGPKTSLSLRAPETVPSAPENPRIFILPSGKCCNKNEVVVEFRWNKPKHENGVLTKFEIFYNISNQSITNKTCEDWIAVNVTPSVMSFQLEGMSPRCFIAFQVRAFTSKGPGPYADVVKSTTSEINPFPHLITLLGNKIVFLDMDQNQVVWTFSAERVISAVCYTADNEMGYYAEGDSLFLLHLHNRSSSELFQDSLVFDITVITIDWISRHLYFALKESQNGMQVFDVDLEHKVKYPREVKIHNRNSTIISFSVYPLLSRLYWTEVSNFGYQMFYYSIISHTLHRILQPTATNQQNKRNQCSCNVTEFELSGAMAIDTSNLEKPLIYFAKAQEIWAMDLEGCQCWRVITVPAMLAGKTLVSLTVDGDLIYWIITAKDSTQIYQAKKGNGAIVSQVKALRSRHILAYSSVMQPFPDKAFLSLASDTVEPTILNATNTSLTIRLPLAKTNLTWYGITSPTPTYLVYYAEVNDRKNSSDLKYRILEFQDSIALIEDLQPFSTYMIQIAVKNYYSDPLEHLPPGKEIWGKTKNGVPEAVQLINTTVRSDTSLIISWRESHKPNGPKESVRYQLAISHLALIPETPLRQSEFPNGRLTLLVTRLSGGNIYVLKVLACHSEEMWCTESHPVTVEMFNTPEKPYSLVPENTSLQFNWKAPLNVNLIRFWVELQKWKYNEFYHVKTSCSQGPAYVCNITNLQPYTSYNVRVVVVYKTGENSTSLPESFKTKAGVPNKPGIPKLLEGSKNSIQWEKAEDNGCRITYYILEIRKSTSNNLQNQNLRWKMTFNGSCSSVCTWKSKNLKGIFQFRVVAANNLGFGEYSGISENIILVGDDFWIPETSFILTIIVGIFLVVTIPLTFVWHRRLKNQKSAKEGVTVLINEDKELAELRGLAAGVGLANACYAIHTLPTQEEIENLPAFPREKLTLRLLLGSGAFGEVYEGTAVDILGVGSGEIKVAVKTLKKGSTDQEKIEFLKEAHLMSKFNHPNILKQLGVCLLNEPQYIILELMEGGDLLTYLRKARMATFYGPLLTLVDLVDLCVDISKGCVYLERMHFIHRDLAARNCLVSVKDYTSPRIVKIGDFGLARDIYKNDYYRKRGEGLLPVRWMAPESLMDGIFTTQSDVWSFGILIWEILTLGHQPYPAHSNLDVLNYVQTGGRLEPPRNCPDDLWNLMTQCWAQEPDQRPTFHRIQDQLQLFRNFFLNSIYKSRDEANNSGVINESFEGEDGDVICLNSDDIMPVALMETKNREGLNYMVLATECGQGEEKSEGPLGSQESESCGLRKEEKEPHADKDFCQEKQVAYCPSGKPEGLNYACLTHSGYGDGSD
each individual kinase of the panel (Homo sapiens, UniProt Q16832), sequence (Q16832 22-855 limits assumed): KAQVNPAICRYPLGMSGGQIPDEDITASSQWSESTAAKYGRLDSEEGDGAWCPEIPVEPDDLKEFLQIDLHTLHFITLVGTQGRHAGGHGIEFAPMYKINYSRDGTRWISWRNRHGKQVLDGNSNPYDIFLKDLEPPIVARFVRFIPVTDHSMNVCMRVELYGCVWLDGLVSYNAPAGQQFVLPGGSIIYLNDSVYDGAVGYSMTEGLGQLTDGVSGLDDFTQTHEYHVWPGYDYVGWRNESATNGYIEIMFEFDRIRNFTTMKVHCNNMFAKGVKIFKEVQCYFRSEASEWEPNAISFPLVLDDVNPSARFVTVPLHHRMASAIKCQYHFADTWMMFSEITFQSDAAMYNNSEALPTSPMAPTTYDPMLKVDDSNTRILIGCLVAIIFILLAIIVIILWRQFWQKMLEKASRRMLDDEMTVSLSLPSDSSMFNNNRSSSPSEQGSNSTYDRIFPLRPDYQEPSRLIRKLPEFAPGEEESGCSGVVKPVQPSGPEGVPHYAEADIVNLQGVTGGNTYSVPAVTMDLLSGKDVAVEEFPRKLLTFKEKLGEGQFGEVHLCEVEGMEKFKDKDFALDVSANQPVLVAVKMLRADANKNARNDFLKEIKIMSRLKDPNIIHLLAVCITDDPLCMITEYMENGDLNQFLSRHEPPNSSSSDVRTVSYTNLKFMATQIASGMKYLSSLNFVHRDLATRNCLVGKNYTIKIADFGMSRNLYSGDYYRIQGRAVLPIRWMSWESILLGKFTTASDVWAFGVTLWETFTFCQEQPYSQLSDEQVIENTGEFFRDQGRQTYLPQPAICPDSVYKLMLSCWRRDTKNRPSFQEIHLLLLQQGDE
each individual kinase of the panel (Homo sapiens, UniProt P07948), sequence (P07948 2-512 limits assumed): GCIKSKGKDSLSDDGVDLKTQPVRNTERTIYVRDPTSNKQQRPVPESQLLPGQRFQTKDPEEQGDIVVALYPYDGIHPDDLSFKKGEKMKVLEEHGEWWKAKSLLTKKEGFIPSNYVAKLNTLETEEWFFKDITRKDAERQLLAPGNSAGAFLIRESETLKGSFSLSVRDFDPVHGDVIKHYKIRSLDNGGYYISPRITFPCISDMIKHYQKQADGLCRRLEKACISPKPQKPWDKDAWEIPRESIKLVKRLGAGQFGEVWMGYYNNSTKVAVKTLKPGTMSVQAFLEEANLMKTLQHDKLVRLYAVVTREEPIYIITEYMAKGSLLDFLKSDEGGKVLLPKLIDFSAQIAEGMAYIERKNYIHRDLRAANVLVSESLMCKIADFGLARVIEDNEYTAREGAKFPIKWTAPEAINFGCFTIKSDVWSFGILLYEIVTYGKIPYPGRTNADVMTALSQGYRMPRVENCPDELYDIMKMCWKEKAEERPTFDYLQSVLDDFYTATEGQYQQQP
each individual kinase of the panel (Homo sapiens, UniProt P07949), sequence (P07949 29-1114 limits assumed): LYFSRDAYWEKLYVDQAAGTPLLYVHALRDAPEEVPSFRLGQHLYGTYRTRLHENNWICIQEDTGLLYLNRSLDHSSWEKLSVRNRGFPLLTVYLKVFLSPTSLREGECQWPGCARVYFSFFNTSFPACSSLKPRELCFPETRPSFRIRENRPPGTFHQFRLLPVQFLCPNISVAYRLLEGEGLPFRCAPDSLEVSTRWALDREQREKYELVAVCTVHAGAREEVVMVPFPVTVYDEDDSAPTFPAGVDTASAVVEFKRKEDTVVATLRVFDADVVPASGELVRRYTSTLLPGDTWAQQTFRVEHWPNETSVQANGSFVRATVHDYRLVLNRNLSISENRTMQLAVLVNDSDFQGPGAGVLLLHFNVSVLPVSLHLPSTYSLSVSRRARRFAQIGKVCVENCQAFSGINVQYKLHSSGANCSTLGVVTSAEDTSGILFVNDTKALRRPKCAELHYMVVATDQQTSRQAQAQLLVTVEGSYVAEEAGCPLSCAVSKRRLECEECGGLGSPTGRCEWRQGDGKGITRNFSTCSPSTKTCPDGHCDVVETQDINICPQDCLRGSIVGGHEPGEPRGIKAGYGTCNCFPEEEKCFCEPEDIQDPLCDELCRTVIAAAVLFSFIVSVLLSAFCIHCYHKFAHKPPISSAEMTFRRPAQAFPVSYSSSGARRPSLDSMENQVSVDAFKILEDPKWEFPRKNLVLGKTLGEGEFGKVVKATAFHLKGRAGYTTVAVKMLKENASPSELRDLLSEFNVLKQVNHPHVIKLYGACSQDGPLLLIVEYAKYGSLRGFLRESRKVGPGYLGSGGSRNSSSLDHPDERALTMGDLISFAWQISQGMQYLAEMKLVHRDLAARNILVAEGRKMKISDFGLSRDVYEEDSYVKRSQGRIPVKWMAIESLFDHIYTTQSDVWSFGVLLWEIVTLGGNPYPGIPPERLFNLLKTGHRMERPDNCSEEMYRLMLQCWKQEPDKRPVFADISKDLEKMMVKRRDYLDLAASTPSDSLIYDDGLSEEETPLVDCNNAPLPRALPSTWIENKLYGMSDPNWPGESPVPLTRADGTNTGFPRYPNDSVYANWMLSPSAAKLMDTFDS

Clc1ccccc1Nc1nc2c(-c3nnc[nH]3)cccc2c2cnccc12 [A]
% Activity [1]: 108% | % Activity [2]: 28% | % Activity [3]: 63% | % Activity [4]: 49% | % Activity [5]: 37% | % Activity [6]: 84% | % Activity [7]: 26% | % Activity [8]: 75% | % Activity [9]: 43% | % Activity ([10]; Ros(h)): 90% | % Activity [11]: 89% | % Activity [12]: 64% | % Activity [13]: 90% | % Activity [14]: 99% | % Activity [15]: 97% | % Activity [16]: 73% | % Activity [17]: 24% | % Activity [18]: 97% | % Activity [19]: 23% | % Activity [20]: 58% | % Activity [21]: 108% | % Activity [22]: 109% | % Activity [23]: 96% | % Activity [24]: 6% | % Activity ([25]; DDR2(h)): 90% | % Activity [26]: 54% | % Activity [27]: 21% | % Activity [28]: 77%

NC(=O)c1cccc2c1nc(Nc1cccc(Cl)c1)c1ccncc12 [B]
% Activity [1]: 99% | % Activity [2]: 79% | % Activity [3]: 87% | % Activity [4]: 49% | % Activity [5]: 18% | % Activity [6]: 94% | % Activity [7]: 44% | % Activity [8]: 75% | % Activity [9]: 73% | % Activity [11]: 88% | % Activity [12]: 74% | % Activity [13]: 103% | % Activity [14]: 97% | % Activity [15]: 100% | % Activity [16]: 51% | % Activity [17]: 2% | % Activity [18]: 106% | % Activity [19]: 25% | % Activity [20]: 48% | % Activity [21]: 93% | % Activity [22]: 87% | % Activity [23]: 90% | % Activity [24]: 21% | % Activity [26]: 33% | % Activity [27]: 38% | % Activity [28]: 86%

C#Cc1cccc(Nc2nc3cc(C(=O)O)ccc3c3cncnc23)c1 [drawing 1135]
IKK alpha percentage of activity [1]: −1% | TAK1 percentage of activity [2]: −1% | FYN percentage of activity [4]: −14% | CDK1/cyclinB percentage of activity [5]: 48% | FES percentage of activity [6]: −39% | YES percentage of activity [7]: −9% | RET percentage of activity [9]: 14% | ROS percentage of activity [10]: −10% | cKit(h) percentage of activity [11]: −14% | SRC percentage of activity [12]: −2% | Src(1-530) percentage of activity [12]: −1% | FER percentage of activity [13]: −3% | PRKCA percentage of activity [14]: 1% | ERK2 percentage of activity [29]: 5% | MAPK2 percentage of activity [29]: −4% | FLT3(D835Y) percentage of activity [17]: 83% | ZAP70 percentage of activity [18]: −18% | GSK3B percentage of activity [19]: 44% | TIE2 percentage of activity [21]: 1% | TYRO3 percentage of activity [22]: −9% | EPHA7 percentage of activity [23]: 1% | RPS6KA1 percentage of activity [24]: 22% | DDR2 percentage of activity [25]: −9% | CK1 gamma 3 percentage of activity [27]: 0% | MLCK percentage of activity [28]: −3% | PDGFRB (V561D) percentage of activity [28]: −4% | PRKCB2 percentage of activity [28]: 1%

C#Cc1cccc(Nc2nc3cc(C(=O)O)ccc3c3cnccc23)c1 [drawing 1137]
IKK alpha percentage of activity [1]: 3% | TAK1 percentage of activity [2]: 6% | LOK percentage of activity [3]: 72% | FYN percentage of activity [4]: 18% | CDK1/cyclinB percentage of activity [5]: 84% | FES percentage of activity [6]: 1% | YES percentage of activity [7]: 34% | LYN percentage of activity [8]: 20% | RET percentage of activity [9]: 35% | ROS percentage of activity [10]: 5% | cKit(h) percentage of activity [11]: 15% | SRC percentage of activity [12]: 22% | Src(1-530) percentage of activity [12]: 11% | FER percentage of activity [13]: 6% | PRKCA percentage of activity [14]: 9% | PKA percentage of activity [15]: −9% | ERK2 percentage of activity [29]: 21% | FLT3(D835Y) percentage of activity [17]: 97% | ZAP70 percentage of activity [18]: 2% | GSK3B percentage of activity [19]: 28% | TIE2 percentage of activity [21]: −12% | TYRO3 percentage of activity [22]: 22% | EPHA7 percentage of activity [23]: 5% | RPS6KA1 percentage of activity [24]: 54% | DDR2 percentage of activity [25]: 12% | Mnk2 percentage of activity [26]: −2% | CK1 gamma 3 percentage of activity [27]: 32%

NC(=O)c1ccc2c(c1)nc(Nc1cccc(Cl)c1)c1ccncc12 [drawing 1138]
IKK alpha percentage of activity [1]: −13% | TAK1 percentage of activity [2]: 12% | LOK percentage of activity [3]: 56% | FYN percentage of activity [4]: 32% | CDK1/cyclinB percentage of activity [5]: 63% | FES percentage of activity [6]: −2% | YES percentage of activity [7]: 30% | LYN percentage of activity [8]: 16% | ROS percentage of activity [10]: −3% | cKit(h) percentage of activity [11]: −10% | FER percentage of activity [13]: 8% | PRKCA percentage of activity [14]: 1% | PKA percentage of activity [15]: −1% | CK2 alpha 2 percentage of activity [16]: 96% | ERK2 percentage of activity [29]: 15% | FLT3(D835Y) percentage of activity [17]: 99% | ZAP70 percentage of activity [18]: −2% | GSK3B percentage of activity [19]: 26% | CK2 alpha 1 percentage of activity [20]: 84% | TIE2 percentage of activity [21]: 45% | TYRO3 percentage of activity [22]: 2% | EPHA7 percentage of activity [23]: 0% | RPS6KA1 percentage of activity [24]: 55% | DDR2 percentage of activity [25]: 5% | Mnk2 percentage of activity [26]: 32% | CK1 gamma 3 percentage of activity [27]: −5%
